Assay results published in article PMC8438204, “Unraveling the Thermodynamics of Ultra-tight Binding of Intrinsically Disordered Proteins” (Frontiers in Molecular Biosciences, 2021).
Read-outs that look alike come from different tables or passages of the source. Marks after values point to notes of the source that are not given here.

Key:
HigB2 toxin [1] = target: T1, HigB2 toxin (Vibrio cholerae serotype O1, UniProt Q9KMA6); experiment: Competition ITC (global fit of direct and competition titrations with nanobody-HigB2 complex); format: binding; design: made in house; settings: for ΔG (association): competition ITC (Nb6/Nb10), VP-ITC, 4 µM HigB2; for ΔG (association) / ΔH (association) / −TΔS (association): 20 mM sodium phosphate pH 7.5, 150 mM NaCl, three replicates
T1 sequence (Q9KMA6 1-110): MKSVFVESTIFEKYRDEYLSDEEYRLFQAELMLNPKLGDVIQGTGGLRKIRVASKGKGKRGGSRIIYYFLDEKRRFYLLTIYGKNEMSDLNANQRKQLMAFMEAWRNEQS

CcdB2 = settings: ref Drobnak et al., 2013, cited from earlier work
Procedure: Supplement DataSheet1.docx, table 1: Table S1. Thermodynamic parameters and structural properties of the complexes. All parameters are reported at T = 25°C. | column: Thermodynamic parameters || Nonetheless, a handful of examples of IDP binders with ultra-high affinity have been characterized to date. […] Complexes are ordered according to the degree of energy optimization as estimated by the ΔH bind/ASAint values. For the HigA2_3-23-HigB2 complex the degree of energy optimization is similar to one observed for the pairs of globular high affinity binders (Supplementary Table S1, Figure 3A). […] The high affinit ...

[2] = tested on: E9-Im9 (colicin DNase - immunity protein); settings: ref Keeble et al., 2006, cited from earlier work
Procedure: Supplement DataSheet1.docx, table 1: Table S1. Thermodynamic parameters and structural properties of the complexes. All parameters are reported at T = 25°C. | column: Thermodynamic parameters

HigB2 toxin [3] = target: T1, HigB2 toxin; settings: full-length HigA2; temperature-dependent ITC; ref Hadži et al., 2017a; cited from earlier work
[4] = 25°C, competition ITC, listed as Full-length HigA2

Compound: CC(C)C[C@H](NC(=O)[C@H](C)NC(=O)[C@H](CO)NC(=O)[C@H](CO)NC(=O)[C@H](CC(C)C)NC(=O)[C@H](CCC(=O)O)NC(=O)[C@H](C)NC(=O)[C@H](Cc1ccccc1)NC(=O)[C@H](CC(C)C)NC(=O)[C@H](CC(=O)O)NC(=O)[C@H](CCCNC(=N)N)NC(=O)[C@@H](N)CC(N)=O)C(=O)N[C@H](C(=O)N[C@@H](CCC(=O)O)C(=O)N[C@@H](C)C(=O)N[C@@H](CCCCN)C(=O)N[C@@H](CCC(N)=O)C(=O)N[C@@H](Cc1c[nH]cn1)C(=O)N[C@@H](CO)C(=O)N[C@@H](CCC(=O)O)C(=O)NCC(=O)N[C@@H](Cc1c[nH]c2ccccc12)C(=O)O)C(C)C [HigA2_3-23]
- Kd (HigB2 toxin [1]): 3 pM

Compound: CcdA37-72 (RRLRAERWKAENQEGMAEVARFIEMNGSFADENRDW; UniProt P62552 37-72, looked up, fragment)
- -TΔS (binding) (CcdB2; 25°C, binding contribution): -0.5 kcal/mol
- ΔG (binding) (CcdB2; 25°C, binding contribution): -19.4 kcal/mol
- ΔH (binding) (CcdB2; 25°C, binding contribution): -18.9 kcal/mol
- -TΔS (folding) (CcdB2; 25°C, folding contribution): 20.4 kcal/mol
- ΔG (folding) (CcdB2; 25°C, folding contribution): 3.8 kcal/mol
- ΔH (folding) (CcdB2; 25°C, folding contribution): -16.6 kcal/mol
- -TΔS (association) (CcdB2; 25°C): 19.9 ± 0.3 kcal/mol
- ΔG (association) (CcdB2; 25°C): -15.6 ± 0.1 kcal/mol
- ΔH (association) (CcdB2; 25°C): -35.5 ± 0.2 kcal/mol
- ΔCp (association) (CcdB2): -0.63 ± 0.02 kcal mol^-1 K^-1

Compound: E9-Im9
- -TΔS ([2]; 25°C): -8.1 ± 0.5 kcal/mol
- ΔG ([2]; 25°C): -18.6 ± 0.1 kcal/mol
- ΔCp [2]: -0.45 kcal mol^-1 K^-1

Compound: HigA2
- ΔCp (association) (HigB2 toxin [3]): −0.95^a kcal mol^−1 K^-1
- ΔG (association) (HigB2 toxin [1]; 25°C): -14.7 kcal/mol
- ΔG (association) (HigB2 toxin [1]; 25°C, listed as Full-length HigA2): -14.7 ± 0.9 kcal/mol
- ΔH (association) (HigB2 toxin [1]; 25°C, competition ITC): -31.5 kcal/mol
- −TΔS (association) (HigB2 toxin [1]; 25°C, competition ITC): 16.8 kcal/mol
- ΔH (association) (HigB2 toxin [1]; [4]): -31.5 ± 1.0 kcal/mol
- −TΔS (association) (HigB2 toxin [1]; [4]): 16.8 ± 1.9 kcal/mol
- Kd (HigB2 toxin [1]; 25°C, competition ITC, value given in abstract, introduction, discussion and Figure 4 under the name HigA2, read-out: KD stated for HigA2-HigB2): 3 pM
